Measured values: PubChem BioAssay (NCI)
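Protocol summary: plate cells (96-well), add compound at 5 concentrations, incubate 48 h, interpolate endpoints linearly. TGI denotes the concentration required for complete inhibition of growth.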

What was measured:
Assay in all cases: inhibition of tumour cell growth, NCI panel, 48 h
BT-549 breast = system: BT-549 breast
DU-145 prostate = system: DU-145 prostate
EKVX NSCLC = system: EKVX NSCLC
HCT-116 colon = system: HCT-116 colon
HCT-15 colon = system: HCT-15 colon
HOP-92 NSCLC = system: HOP-92 NSCLC
IGROV1 ovarian = system: IGROV1 ovarian
M14 melanoma = system: M14 melanoma
MOLT-4 leukemia = system: MOLT-4 leukemia
NCI-H226 lung = system: NCI-H226 lung
OVCAR-5 ovarian = system: OVCAR-5 ovarian
OVCAR-8 ovarian = system: OVCAR-8 ovarian
SF-268 CNS = system: SF-268 CNS
TK-10 renal = system: TK-10 renal
HCC-2998 colon = system: HCC-2998 colon

SMILES	TGI (BT-549 breast)	TGI (DU-145 prostate)	TGI (EKVX NSCLC)	TGI (HCT-116 colon)	TGI (HCT-15 colon)	TGI (HOP-92 NSCLC)	TGI (IGROV1 ovarian)	TGI (M14 melanoma)	TGI (MOLT-4 leukemia)	TGI (NCI-H226 lung)	TGI (OVCAR-5 ovarian)	TGI (OVCAR-8 ovarian)	TGI (SF-268 CNS)	TGI (TK-10 renal)	TGI (HCC-2998 colon)
NC(=O)c1ccc(C(=O)Nc2ccc([As](=O)(O)O)cc2)cc1	> 100 µM	> 100 µM	> 100 µM	> 100 µM	> 100 µM	> 100 µM	> 100 µM	> 100 µM	> 100 µM	> 100 µM	> 100 µM	> 100 µM	> 100 µM	> 100 µM	
Cn1c2ccc([N+](=O)[O-])cc2c(=O)n1Cc1ccccc1F	> 100 µM	> 100 µM	> 100 µM	> 100 µM	> 100 µM	91.6 µM	> 100 µM	> 100 µM	> 100 µM	92.4 µM	> 100 µM	> 100 µM	> 100 µM	> 100 µM	> 100 µM
CC(=O)c1cccc(Nc2nc3ccccc3c3occc23)c1	39.6 µM	> 100 µM	> 100 µM	50 µM	> 100 µM	33 µM		> 100 µM	> 100 µM	8.25 µM	> 100 µM	74.5 µM	86.7 µM	38.5 µM	> 100 µM
CC1OC(OC2C(OC(=O)[C@]34CCC(C)(C)C[C@H]3C3=CC[C@@H]5[C@@]6(C)CC[C@H](OC7OC(C(=O)O)C(O)C(O)C7O)C(C)(C)[C@@H]6CC[C@@]5(C)[C@]3(C)C[C@H]4O)OCC(O)C2O)C(O)C(O)C1OC1OCC(OC2OCC(O)C(O)C2O)C(O)C1O (stereo not given in full)	13 µM	23.8 µM	15.2 µM	16.6 µM	28 µM	19.5 µM	26.5 µM	11.5 µM	37.1 µM	22.9 µM	20.1 µM	32.3 µM	26.3 µM		3.03 µM
Cn1c(=O)c2c3ccccc3n(C)c2n(C)c1=O	> 100 µM	> 100 µM	> 100 µM	> 100 µM	> 100 µM	> 100 µM	> 100 µM	> 100 µM	> 100 µM	> 100 µM	> 100 µM	> 100 µM	> 100 µM	> 100 µM	> 100 µM
Cc1ccc(Cc2n[nH]c(=O)[nH]2)cc1	> 100 µM	> 100 µM	> 100 µM	> 100 µM	> 100 µM	> 100 µM	> 100 µM	> 100 µM	> 100 µM	> 100 µM	> 100 µM	> 100 µM		> 100 µM	> 100 µM
CC1=C(C(=O)OCCO[N+](=O)[O-])C(c2cccc([N+](=O)[O-])c2)C(C(=O)OC(C)C)=C(C)N1 (stereo not given)	27.1 µM	65.9 µM	48.9 µM	22.2 µM	27.4 µM	25.5 µM	33.9 µM	29.5 µM	> 100 µM	28.2 µM	30.4 µM	54.2 µM	33 µM	42.9 µM	29.6 µM
O=C1N(C2CCCCC2)C(=O)N1C1CCCCC1	5.29 µM	> 58.9 µM	> 100 µM	14.1 µM	22.2 µM	19.5 µM	> 100 µM	20.7 µM	10.2 µM	11.3 µM	30.2 µM	16.6 µM	40.2 µM	38.5 µM	> 47.3 µM
CC(=O)Nc1oc(C)c(C)c1S(=O)(=O)c1ccc(Cl)cc1	89.3 µM	> 100 µM	> 100 µM	> 100 µM	> 100 µM	> 100 µM	> 100 µM	> 100 µM	> 100 µM	> 100 µM	> 100 µM	> 100 µM	> 100 µM	> 100 µM	> 100 µM
COc1cccc2c1C(=O)C1=C(C2=O)C(O)CC(C)(C)O1 (stereo not given)	> 100 µM	> 100 µM	> 100 µM	63 µM	> 100 µM	> 100 µM	> 100 µM	> 100 µM	82.6 µM	> 100 µM	> 100 µM	91.5 µM	> 100 µM	> 100 µM	> 100 µM
COc1ccc(N2CN3OC(=O)N(c4ccc(OC)cc4)[C@@]3(c3ccccc3)C2)cc1	> 100 µM	> 100 µM	> 100 µM	> 100 µM	> 100 µM	> 100 µM	> 100 µM	> 100 µM	> 100 µM	> 100 µM	> 100 µM	> 100 µM	> 100 µM	> 100 µM	> 100 µM
COc1ccccc1CCN1CCN(CCCc2ccccc2)CC1	> 100 µM	> 100 µM	> 100 µM	> 100 µM	> 100 µM	23.2 µM	> 100 µM	76.4 µM	> 100 µM	> 100 µM	> 100 µM	> 100 µM	> 100 µM	> 100 µM	> 100 µM
C=C1C[C@@H]2CC[C@@]34CC5O[C@H]6C(O[C@H]7CC[C@H](CC(=O)O[C@@H]8[C@@H](C)[C@@H]9O[C@@H]%10C[C@]%11(C[C@@H]%12O[C@]%13(C[C@H](C)[C@@H]%14O[C@@H]%15CC(C(O)CO)O[C@@H]%15C[C@@H]%14O%13)C[C@H](C)[C@@H]%12O%11)O[C@@H]%10C[C@@H]9O[C@H]8CC8O[C@@H](CC[C@@H]1O2)C[C@@H](C)C8(O)CO)O[C@@H]7[C@@H]6O3)[C@H]5O4 (stereo not given in full)	0.469 µM	> 1 µM	> 1 µM	> 1 µM	> 1 µM	> 1 µM	> 1 µM	> 1 µM	> 1 µM	> 1 µM	> 1 µM	> 1 µM	> 1 µM	> 1 µM	> 1 µM
O=C1NC(N/N=C/c2ccccc2)=N/C1=C\c1ccco1	70.6 µM	> 100 µM	> 100 µM	> 100 µM	> 100 µM	37.3 µM	57.4 µM	> 100 µM	> 100 µM	> 100 µM	> 100 µM	34.9 µM	75.6 µM	92.3 µM	> 100 µM
N#Cc1cccc2c1Sc1ccccc1N2	79.8 µM	> 100 µM	97.4 µM	> 100 µM	> 100 µM	> 100 µM	> 100 µM	> 100 µM	85.7 µM	> 100 µM	72.8 µM	> 100 µM	> 100 µM	75.8 µM	> 100 µM
Nc1ccccc1-c1noc(=O)[nH]1	> 100 µM	> 100 µM	> 100 µM	> 100 µM	> 100 µM	> 100 µM	> 100 µM	> 100 µM	> 100 µM	> 100 µM	> 100 µM	> 100 µM	> 100 µM	> 100 µM	> 100 µM
N#CC(C#N)=C1C(=Cc2ccc(OCCCCCCCCCCSSCCCCCCCCCCOc3ccc(C=C4C(=C(C#N)C#N)c5ccccc5C4=C(C#N)C#N)cc3)cc2)C(=C(C#N)C#N)c2ccccc21	38.9 µM	47.7 µM	43.1 µM	30.8 µM	31.6 µM	34.9 µM	> 100 µM	47.9 µM	80 µM	63.6 µM	35.5 µM	> 100 µM	55.1 µM	> 100 µM	28.9 µM
S=c1nc2sc3c(c2c(Nc2ccc(Cl)cc2)[nH]1)CCCC3	> 100 µM	> 100 µM	> 100 µM	> 100 µM	> 100 µM	> 100 µM	> 100 µM		> 100 µM	> 100 µM	> 100 µM		> 100 µM	> 100 µM	> 100 µM
CC1=NN(c2nc(N)nc(/C(C#N)=C/c3ccccc3O)n2)C(C)(C)C1	67.7 µM	32 µM	37.5 µM	32.2 µM	38.6 µM	36.7 µM	45.5 µM	36.4 µM	> 100 µM	37.8 µM	30.4 µM	61.6 µM	37.1 µM	58.4 µM	36.5 µM
COc1cc2c(cc1OC)[C@@H]1[C@H](C#N)C(=O)C(C)(C)N1CC2	> 100 µM	> 100 µM	> 100 µM	> 100 µM	> 100 µM	> 100 µM	> 100 µM	> 100 µM	> 100 µM	> 100 µM	> 100 µM	> 100 µM		> 100 µM	> 100 µM
CN(CC(=O)N1CC(CCl)c2ccc([N+](=O)[O-])cc21)CC(=O)N1CC(CCl)c2ccc([N+](=O)[O-])cc21 (stereo not given)	> 100 µM	> 100 µM	> 100 µM	> 100 µM	> 100 µM	> 100 µM	> 100 µM	> 100 µM	> 100 µM	> 100 µM	> 100 µM	> 100 µM	> 100 µM	> 100 µM	> 100 µM
COc1c2c(cc3c1C(=O)c1c(O)cccc1C3=O)CC(O)CC2 (stereo not given)	43.1 µM	> 100 µM	> 100 µM	> 100 µM	> 100 µM	40.1 µM	> 100 µM	> 100 µM	> 100 µM	> 100 µM	> 100 µM	> 100 µM		> 100 µM	> 100 µM
Cc1ccc2c(c1)[nH]c(=S)n2C=C(C(N)=O)C(N)=O	> 100 µM	> 100 µM	> 100 µM	> 100 µM	> 100 µM	> 100 µM	> 100 µM	> 100 µM		> 100 µM	> 100 µM	> 100 µM	> 100 µM	> 100 µM	> 100 µM
O=C1NC(N/N=C/C(O)C(O)C(O)C(O)CO)=N/C1=C\c1ccco1 (stereo not given)	> 100 µM	> 100 µM	> 100 µM	> 100 µM	> 100 µM	> 100 µM	> 100 µM	> 100 µM	> 100 µM	> 100 µM	> 100 µM	> 100 µM	> 100 µM	> 100 µM	
C=CCC1(O)CC(n2cc(C)c(=O)[nH]c2=O)OC1CO[Si](C)(C)C(C)(C)C (stereo not given)	> 100 µM	> 100 µM	> 100 µM	> 100 µM	> 100 µM	> 100 µM	> 100 µM	> 100 µM	> 100 µM	> 100 µM	> 100 µM	> 100 µM			> 100 µM
O=C(C1OC1c1ccc(Cl)cc1)C12CC3CC(CC(C3)C1)C2 (stereo not given)	52.1 µM	> 100 µM	56.3 µM	28.8 µM	82 µM	39 µM	67.4 µM	38.1 µM	51.9 µM	38.5 µM	50.8 µM	32.9 µM	53 µM	> 100 µM	35.4 µM
NC1c2c(Br)sc(N3CCCC3)c2C(=O)C1O (stereo not given)	> 50 µM	> 50 µM	> 50 µM	> 50 µM	> 50 µM	> 50 µM	> 50 µM	> 50 µM	> 50 µM	> 50 µM	> 50 µM	> 50 µM	> 50 µM	> 50 µM	> 50 µM
Nc1ncc(Br)c(NCC2(CO)CCC2)n1	> 100 µM	> 100 µM	> 100 µM	> 100 µM	> 100 µM	> 100 µM	> 100 µM		> 100 µM	> 100 µM	> 100 µM	> 100 µM	> 100 µM	> 100 µM	> 100 µM
Cc1nnc2n1N=C(c1ccccc1)/C(=C/c1ccc(-c3ccc(Cl)cc3)o1)S2	32.2 µM	38.9 µM	53.3 µM	25.9 µM	31.3 µM	32.6 µM	36.6 µM	36.6 µM	23 µM	31.1 µM	39.9 µM		33.2 µM	26.4 µM	19.9 µM
CCCCS(=O)(=O)CCC(N)P(=O)(O)O (stereo not given)	> 100 µM	> 100 µM	> 100 µM	> 100 µM	> 100 µM	> 100 µM	> 100 µM	> 100 µM	> 100 µM	> 100 µM	> 100 µM	> 100 µM	> 100 µM	> 100 µM	
